In ChEMBL document CHEMBL5678818, “Discovery of potent SOS1 inhibitors that block RAS activation via disruption of the RAS-SOS1 interaction” (Proc Natl Acad Sci U S A, 2019):

What was measured:
[1] = target: T1, Tyrosine-protein kinase receptor TYRO3 (Homo sapiens) (UniProt Q06418); experiment: Inhibition of TYRO3 (unknown origin) assessed as residual activity at 1000 nM by KINOMEscan analysis relative to control
T1 sequence (whole entry): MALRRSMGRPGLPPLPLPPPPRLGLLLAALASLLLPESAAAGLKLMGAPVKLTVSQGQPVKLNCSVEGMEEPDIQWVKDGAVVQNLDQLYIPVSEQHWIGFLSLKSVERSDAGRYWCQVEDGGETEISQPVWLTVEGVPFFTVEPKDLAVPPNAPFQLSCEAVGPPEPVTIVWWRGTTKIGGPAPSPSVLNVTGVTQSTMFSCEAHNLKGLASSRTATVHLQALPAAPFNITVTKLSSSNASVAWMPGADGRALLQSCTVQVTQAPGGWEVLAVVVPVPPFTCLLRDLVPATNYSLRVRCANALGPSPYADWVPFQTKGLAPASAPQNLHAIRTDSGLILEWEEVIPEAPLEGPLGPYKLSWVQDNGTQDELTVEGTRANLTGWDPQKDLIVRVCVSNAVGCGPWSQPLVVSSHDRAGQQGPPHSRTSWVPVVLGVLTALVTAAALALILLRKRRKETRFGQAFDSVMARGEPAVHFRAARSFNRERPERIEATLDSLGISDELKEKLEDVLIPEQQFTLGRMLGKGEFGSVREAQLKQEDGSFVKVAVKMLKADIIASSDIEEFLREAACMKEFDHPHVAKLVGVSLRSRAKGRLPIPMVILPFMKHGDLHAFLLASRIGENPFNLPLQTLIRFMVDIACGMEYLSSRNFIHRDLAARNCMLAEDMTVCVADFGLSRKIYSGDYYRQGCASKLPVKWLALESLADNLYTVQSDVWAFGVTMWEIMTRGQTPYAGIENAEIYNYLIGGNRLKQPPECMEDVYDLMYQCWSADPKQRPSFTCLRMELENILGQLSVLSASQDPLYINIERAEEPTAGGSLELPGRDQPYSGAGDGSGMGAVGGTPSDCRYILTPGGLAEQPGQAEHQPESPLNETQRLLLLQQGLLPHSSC

[2] = target: T2, Muscle, skeletal receptor tyrosine-protein kinase (Homo sapiens) (UniProt O15146); experiment: Inhibition of MUSK (unknown origin) assessed as residual activity at 1000 nM by KINOMEscan analysis relative to control
T2 sequence (whole entry): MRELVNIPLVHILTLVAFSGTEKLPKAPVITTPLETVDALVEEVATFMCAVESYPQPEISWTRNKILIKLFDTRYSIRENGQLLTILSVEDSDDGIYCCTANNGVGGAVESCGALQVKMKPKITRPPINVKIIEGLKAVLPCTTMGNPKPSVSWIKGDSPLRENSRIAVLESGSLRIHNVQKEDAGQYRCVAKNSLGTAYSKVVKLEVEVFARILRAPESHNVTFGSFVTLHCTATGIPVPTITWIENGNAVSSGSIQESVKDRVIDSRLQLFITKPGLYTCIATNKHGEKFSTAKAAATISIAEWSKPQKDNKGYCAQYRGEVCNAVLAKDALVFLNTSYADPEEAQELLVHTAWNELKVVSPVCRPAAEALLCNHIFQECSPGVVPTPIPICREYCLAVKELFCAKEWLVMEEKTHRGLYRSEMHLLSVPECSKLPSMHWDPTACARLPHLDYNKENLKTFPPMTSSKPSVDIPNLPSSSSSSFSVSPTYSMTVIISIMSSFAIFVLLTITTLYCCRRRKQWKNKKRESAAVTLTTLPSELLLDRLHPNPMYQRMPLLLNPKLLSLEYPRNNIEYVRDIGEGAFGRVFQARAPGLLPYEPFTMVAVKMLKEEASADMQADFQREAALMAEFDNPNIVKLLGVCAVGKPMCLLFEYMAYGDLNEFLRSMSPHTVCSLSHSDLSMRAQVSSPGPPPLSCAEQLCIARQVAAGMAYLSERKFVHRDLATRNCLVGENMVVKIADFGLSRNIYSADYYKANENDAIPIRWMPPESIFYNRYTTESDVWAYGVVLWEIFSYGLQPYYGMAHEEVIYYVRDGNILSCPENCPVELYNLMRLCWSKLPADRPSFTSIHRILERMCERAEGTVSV

Row | SMILES | Activity [1] | Activity [2]
1 | COc1cc2ncnc(N[C@H](C)c3cccc4ccccc34)c2cc1OC | 90% | 97%
2 | COc1cc2nc(C)nc(N[C@H](C)c3cccc(-c4cn[nH]c4)c3)c2cc1OC | 66% | 91%
